Values after ≈ are worked out from the molar mass of the structure shown. Active and inactive are the calls of the source. The rule behind the calls is not given here.
Key:
[1] = target: Menin/Histone-lysine N-methyltransferase MLL (Homo sapiens, UniProt O00255); experiment: Inhibition of Menin/fluorescein labeled MLL(4 to 43 residues) (unknown origin) protein protein interaction incubated for 1 hr by fluorescence polarization-based competitive binding assay
MV4-11 [2] = experiment: Antiproliferative activity against human MV4-11 cells harboring MLL-AF4 assessed as cell growth inhibition measured for 72 hrs by MTT assay; type: functional, cell-based; conditions: MV4-11, 72 h
HL-60 = experiment: Antiproliferative activity against human […] assessed as cell growth inhibition measured for 72 hrs by MTT assay; type: functional, cell-based; conditions: HL-60, 72 h
[3] = Solubility of compound in phosphate buffer at pH 7.4 by spectrophotometric analysis; type: physicochemical
MV4-11 [4] = experiment: Induction of cell differentiation in human MV4-11 cells assessed as increase in CD11b expression at 10 uM measured after 7 days by flow cytometric analysis; type: functional, cell-based; conditions: time 7.0 day
MV4-11 [5] = experiment: Antiproliferative activity against human MV4-11 cells assessed as reduction in cell viability measured for 3 days by cell counting assay; type: functional, cell-based; conditions: MV4-11, 72 h
MV4-11 [6] = experiment: Antiproliferative activity against human MV4-11 cells assessed as reduction in cell viability measured for 3 days followed by replacement with fresh medium of compound and measured after 72 hrs by cell counting assay; type: functional, cell-based; conditions: MV4-11, 72 h
MV4-11 [7] = experiment: Induction of apoptosis in human MV4-11 cells incubated for 24 hrs by annexinV/PI staining based flow cytometry analysis; type: functional, cell-based; conditions: dose 0.1-10 µM, DDE = dose-dependent effect
MV4-11 [8] = experiment: Reversible differentiation arrest in human MV4-11 cells at 0.1 to 10 uM measured after 7 days by flow cytometric analysis; type: functional, cell-based; conditions: dose 0.1-10 µM, time 7.0 day

Chain of Menin/Histone-lysine N-methyltransferase MLL (O00255 whole entry, the tested form may be a part): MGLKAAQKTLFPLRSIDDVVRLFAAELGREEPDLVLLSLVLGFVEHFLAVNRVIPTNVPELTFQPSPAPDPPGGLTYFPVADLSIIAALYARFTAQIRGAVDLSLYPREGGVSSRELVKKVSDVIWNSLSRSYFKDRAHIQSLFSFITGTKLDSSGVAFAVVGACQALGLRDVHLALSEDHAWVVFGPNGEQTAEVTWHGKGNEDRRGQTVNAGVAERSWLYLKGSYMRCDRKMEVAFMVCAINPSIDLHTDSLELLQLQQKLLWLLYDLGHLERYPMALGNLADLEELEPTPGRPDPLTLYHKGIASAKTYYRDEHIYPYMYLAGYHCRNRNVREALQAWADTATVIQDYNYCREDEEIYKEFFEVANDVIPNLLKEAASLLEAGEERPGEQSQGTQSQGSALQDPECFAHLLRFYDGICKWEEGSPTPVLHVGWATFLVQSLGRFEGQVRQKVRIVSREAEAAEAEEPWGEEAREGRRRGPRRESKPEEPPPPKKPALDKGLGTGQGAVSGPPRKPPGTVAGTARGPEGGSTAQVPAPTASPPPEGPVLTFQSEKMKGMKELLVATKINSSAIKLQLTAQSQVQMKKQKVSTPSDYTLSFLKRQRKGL
Chain of Menin/Histone-lysine N-methyltransferase MLL (Q03164 1-2718 partner limits assumed): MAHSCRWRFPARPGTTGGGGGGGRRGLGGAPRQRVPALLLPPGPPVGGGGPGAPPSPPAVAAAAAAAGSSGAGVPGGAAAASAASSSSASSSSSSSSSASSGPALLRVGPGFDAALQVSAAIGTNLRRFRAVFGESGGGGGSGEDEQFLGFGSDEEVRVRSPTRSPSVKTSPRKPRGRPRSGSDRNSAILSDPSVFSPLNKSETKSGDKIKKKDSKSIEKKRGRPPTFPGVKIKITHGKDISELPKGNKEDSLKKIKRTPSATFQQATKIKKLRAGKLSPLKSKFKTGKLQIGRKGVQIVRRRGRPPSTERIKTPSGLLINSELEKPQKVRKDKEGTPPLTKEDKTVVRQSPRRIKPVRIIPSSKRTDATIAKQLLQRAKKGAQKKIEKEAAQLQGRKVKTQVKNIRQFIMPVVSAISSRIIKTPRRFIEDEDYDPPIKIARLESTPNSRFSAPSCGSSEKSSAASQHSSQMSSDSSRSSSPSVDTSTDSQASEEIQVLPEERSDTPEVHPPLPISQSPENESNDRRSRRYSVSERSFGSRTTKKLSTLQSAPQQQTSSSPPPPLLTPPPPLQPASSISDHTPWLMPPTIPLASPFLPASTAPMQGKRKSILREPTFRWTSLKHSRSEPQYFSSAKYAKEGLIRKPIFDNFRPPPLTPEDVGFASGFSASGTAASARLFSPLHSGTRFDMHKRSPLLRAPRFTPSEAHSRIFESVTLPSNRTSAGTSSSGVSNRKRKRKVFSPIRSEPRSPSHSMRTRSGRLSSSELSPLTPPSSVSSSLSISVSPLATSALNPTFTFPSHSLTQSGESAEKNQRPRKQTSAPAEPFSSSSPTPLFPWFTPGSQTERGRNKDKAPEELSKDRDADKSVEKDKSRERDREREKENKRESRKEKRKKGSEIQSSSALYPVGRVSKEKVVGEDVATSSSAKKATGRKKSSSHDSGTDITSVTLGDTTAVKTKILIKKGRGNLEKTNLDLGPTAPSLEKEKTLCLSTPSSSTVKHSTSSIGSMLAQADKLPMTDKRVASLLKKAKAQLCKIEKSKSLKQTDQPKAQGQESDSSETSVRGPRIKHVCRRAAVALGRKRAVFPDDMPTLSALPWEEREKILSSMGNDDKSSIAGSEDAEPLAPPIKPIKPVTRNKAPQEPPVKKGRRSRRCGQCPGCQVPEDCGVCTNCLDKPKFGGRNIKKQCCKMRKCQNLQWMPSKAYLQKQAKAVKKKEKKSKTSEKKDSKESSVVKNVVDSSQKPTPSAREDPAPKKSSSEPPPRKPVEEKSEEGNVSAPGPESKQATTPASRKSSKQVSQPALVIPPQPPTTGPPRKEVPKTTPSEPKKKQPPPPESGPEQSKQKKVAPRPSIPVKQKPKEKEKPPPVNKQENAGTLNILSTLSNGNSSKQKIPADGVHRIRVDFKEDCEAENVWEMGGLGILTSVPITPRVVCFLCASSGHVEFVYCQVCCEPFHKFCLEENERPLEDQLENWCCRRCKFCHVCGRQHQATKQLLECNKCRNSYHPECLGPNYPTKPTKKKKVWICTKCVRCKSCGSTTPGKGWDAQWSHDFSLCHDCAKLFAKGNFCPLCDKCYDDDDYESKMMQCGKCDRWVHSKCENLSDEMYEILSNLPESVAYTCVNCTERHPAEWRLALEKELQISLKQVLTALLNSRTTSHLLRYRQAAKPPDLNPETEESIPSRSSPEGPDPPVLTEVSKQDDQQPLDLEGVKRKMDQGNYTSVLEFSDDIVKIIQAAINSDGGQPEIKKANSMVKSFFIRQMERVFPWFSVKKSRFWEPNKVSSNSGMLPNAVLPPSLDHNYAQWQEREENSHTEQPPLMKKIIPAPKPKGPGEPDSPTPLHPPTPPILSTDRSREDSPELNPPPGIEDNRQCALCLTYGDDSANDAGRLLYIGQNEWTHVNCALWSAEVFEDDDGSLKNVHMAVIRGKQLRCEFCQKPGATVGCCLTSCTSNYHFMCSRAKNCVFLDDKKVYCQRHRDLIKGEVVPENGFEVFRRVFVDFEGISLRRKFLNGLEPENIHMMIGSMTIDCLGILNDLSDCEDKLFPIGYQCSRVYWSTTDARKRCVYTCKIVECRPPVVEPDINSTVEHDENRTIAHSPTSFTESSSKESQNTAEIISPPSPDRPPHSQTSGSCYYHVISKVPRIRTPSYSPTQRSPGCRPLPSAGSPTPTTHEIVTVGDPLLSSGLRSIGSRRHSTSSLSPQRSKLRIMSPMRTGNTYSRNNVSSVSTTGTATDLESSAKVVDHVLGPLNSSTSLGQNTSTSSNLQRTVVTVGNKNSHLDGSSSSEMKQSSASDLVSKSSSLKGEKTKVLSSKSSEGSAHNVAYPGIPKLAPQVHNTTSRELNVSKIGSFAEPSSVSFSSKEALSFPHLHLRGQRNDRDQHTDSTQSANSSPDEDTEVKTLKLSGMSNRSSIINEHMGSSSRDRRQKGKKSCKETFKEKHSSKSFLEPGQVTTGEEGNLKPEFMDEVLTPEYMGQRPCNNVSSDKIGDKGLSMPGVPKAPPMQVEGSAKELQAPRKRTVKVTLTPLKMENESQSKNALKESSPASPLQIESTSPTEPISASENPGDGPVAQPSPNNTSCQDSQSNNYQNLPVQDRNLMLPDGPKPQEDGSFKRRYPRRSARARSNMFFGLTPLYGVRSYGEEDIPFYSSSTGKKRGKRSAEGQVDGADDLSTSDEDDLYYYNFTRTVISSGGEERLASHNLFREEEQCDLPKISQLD
Chain of Menin/Histone-lysine N-methyltransferase MLL (Q03164 2719-3969 partner limits assumed): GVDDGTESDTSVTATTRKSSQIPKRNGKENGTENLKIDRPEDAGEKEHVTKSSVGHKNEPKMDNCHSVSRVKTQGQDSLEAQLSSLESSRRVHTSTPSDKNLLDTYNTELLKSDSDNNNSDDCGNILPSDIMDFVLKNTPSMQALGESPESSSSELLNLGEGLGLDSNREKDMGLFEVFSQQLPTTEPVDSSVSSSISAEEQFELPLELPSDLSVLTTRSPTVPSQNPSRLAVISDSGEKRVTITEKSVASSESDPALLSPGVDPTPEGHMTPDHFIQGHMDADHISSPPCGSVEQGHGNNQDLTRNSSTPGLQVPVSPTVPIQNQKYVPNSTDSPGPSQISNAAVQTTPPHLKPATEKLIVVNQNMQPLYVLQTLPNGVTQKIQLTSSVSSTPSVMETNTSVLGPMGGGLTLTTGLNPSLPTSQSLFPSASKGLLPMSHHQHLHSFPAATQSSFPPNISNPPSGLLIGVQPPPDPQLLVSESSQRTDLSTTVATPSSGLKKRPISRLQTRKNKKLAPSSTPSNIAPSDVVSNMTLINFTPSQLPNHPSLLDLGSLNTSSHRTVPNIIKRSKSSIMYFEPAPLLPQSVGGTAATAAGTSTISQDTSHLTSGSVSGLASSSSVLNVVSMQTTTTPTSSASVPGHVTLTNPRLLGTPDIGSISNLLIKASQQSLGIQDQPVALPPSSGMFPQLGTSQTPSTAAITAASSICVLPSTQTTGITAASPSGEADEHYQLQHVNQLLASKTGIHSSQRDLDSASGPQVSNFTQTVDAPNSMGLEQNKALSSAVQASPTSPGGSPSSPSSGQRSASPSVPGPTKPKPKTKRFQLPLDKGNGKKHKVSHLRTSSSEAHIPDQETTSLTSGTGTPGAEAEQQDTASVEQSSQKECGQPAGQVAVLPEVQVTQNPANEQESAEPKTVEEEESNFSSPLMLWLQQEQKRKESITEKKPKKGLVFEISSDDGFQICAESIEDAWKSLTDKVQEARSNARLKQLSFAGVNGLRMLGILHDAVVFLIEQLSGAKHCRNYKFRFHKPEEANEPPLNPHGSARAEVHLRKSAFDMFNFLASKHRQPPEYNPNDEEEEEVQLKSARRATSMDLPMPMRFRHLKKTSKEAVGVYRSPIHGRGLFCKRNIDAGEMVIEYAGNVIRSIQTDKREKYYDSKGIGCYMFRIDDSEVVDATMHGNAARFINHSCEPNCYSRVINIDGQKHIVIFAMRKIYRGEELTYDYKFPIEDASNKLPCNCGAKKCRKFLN

O=S(=O)(c1ccncc1)c1ccc(N2CC(CN3CCC(Nc4ncnc5cnc(Cl)cc45)CC3)C2)cc1
IC50 [1]: > 10 µM | IC50 (MV4-11 [2]): 9 µM | IC50 (HL-60): > 10 µM

CN(C)CCN(C)C1CCN(c2cc3c(NC4CCN(CC5CN(c6ccc(C#N)cc6)C5)CC4)ncnc3cn2)CC1
IC50 [1]: 0.29 µM | IC50 (MV4-11 [2]): 3.5 µM | IC50 (HL-60): > 10 µM

N#Cc1ccc(N2CC(CN3CCC(Nc4ncnc5ccc(OCC(F)(F)F)nc45)CC3)C2)cc1
IC50 [1]: > 10 µM | IC50 (MV4-11 [2]): 5.6 µM | IC50 (HL-60): > 10 µM

N#Cc1ccc(N2CC(CN3CCC(Nc4ncnc5cnc(Cl)cc45)CC3)C2)cc1
IC50 [1]: > 10 µM | IC50 (MV4-11 [2]): > 10 µM | IC50 (HL-60): > 10 µM

N#Cc1ccc(N2CC(CN3CCC(Nc4ncnc5cnc(OCC(F)(F)F)cc45)CC3)C2)cc1
IC50 [1]: 0.69 µM | IC50 (MV4-11 [2]): > 10 µM | IC50 (HL-60): > 10 µM

CN(C)C1CCN(c2cc3c(NC4CCN(CC5CN(c6ccc(C#N)cc6)C5)CC4)ncnc3cn2)CC1
IC50 [1]: > 10 µM | IC50 (MV4-11 [2]): 3 µM | IC50 (HL-60): > 10 µM

N#Cc1ccc(N2CC(CN3CCC(Nc4ncnc5ccc(Cl)nc45)CC3)C2)cc1
IC50 [1]: > 10 µM | IC50 (MV4-11 [2]): > 10 µM | IC50 (HL-60): > 10 µM | solubility [3]: < 0.4 µg/mL

N#Cc1ccc(N2CC(CN3CCC(Nc4ncnc5cnc(NCC6CC6)cc45)CC3)C2)cc1
IC50 [1]: > 10 µM | IC50 (MV4-11 [2]): > 10 µM | IC50 (HL-60): > 10 µM

CC(C)CNc1cc2c(NC3CCN(CC4CN(c5ccc(C#N)cc5)C4)CC3)ncnc2cn1
IC50 [1]: 1.97 µM | IC50 (MV4-11 [2]): > 10 µM | IC50 (HL-60): > 10 µM

CN1CCN(c2cc3c(NC4CCN(CC5CN(c6ccc(C#N)cc6)C5)CC4)ncnc3cn2)CC1
IC50 [1]: > 10 µM | IC50 (MV4-11 [2]): 6.7 µM | IC50 (HL-60): > 10 µM

N#Cc1ccc(N2CC(CN3CCC(Nc4ncnc5ccc(Br)cc45)CC3)C2)cc1
IC50 [1]: > 10 µM | IC50 (MV4-11 [2]): > 10 µM | IC50 (HL-60): > 10 µM

CN(C)CCN(C)c1ccc2ncnc(NC3CCN(CC4CN(c5ccc(C#N)cc5)C4)CC3)c2n1
IC50 [1]: 0.26 µM | IC50 (MV4-11 [2]): 3.2 µM | IC50 (HL-60): > 10 µM

N#Cc1ccc(N2CC(CN3CCC(Nc4ncnc5ccc(NCCO)nc45)CC3)C2)cc1
IC50 [1]: > 10 µM | IC50 (MV4-11 [2]): > 10 µM | IC50 (HL-60): > 10 µM

N#Cc1ccc(N2CC(CN3CCC(Nc4ncnc5cnc(N6CCOCC6)cc45)CC3)C2)cc1
IC50 [1]: > 10 µM | IC50 (MV4-11 [2]): > 10 µM | IC50 (HL-60): > 10 µM

N#Cc1ccc(N2CC(CN3CCC(Nc4ncnc5ccc(CC(F)(F)F)cc45)CC3)C2)cc1
IC50 [1]: > 10 µM | IC50 (MV4-11 [2]): > 10 µM | IC50 (HL-60): > 10 µM

CC(C)Nc1cc2c(NC3CCN(CC4CN(c5ccc(C#N)cc5)C4)CC3)ncnc2cn1
IC50 [1]: 0.53 µM | IC50 (MV4-11 [2]): > 10 µM | IC50 (HL-60): > 10 µM

O=S(=O)(c1ccc(N2CC(CN3CCC(Nc4ncnc5ccc(Cl)nc45)CC3)C2)cc1)c1ccccn1
IC50 [1]: 0.06 µM | IC50 (MV4-11 [2]): 2.5 µM | IC50 (HL-60): > 10 µM

CN(C)CCOc1ccc2ncnc(NC3CCN(CC4CN(c5ccc(S(=O)(=O)c6ccncc6)cc5)C4)CC3)c2n1
IC50 [1]: 0.01 µM | IC50 (MV4-11 [2]): 1.5 µM | IC50 (HL-60): > 10 µM | solubility [3]: 153 µg/mL (≈ 254 µM)

CC(C)(C)OC(=O)N1CC(S(=O)(=O)c2ccc(N3CC(CN4CCC(Nc5ncnc6cnc(Cl)cc56)CC4)C3)cc2)C1
IC50 [1]: > 10 µM | IC50 (MV4-11 [2]): > 10 µM | IC50 (HL-60): > 10 µM

COC(CNc1ccc2ncnc(NC3CCN(CC4CN(c5ccc(C#N)cc5)C4)CC3)c2n1)OC
IC50 [1]: > 10 µM | IC50 (MV4-11 [2]): > 10 µM | IC50 (HL-60): > 10 µM

CN(C)CCOc1ccc2ncnc(NC3CCN(CC4CN(c5ccc(S(=O)(=O)C6CN(C(=O)OC(C)(C)C)C6)cc5)C4)CC3)c2n1
IC50 [1]: 0.19 µM | IC50 (MV4-11 [2]): 2 µM | IC50 (HL-60): > 10 µM | solubility [3]: 69.5 µg/mL (≈ 102 µM)

CCN(CC)CCNc1ccc2ncnc(NC3CCN(CC4CN(c5ccc(C#N)cc5)C4)CC3)c2n1
IC50 [1]: 0.82 µM | IC50 (MV4-11 [2]): 4.2 µM | IC50 (HL-60): 9.5 µM

N#Cc1ccc(N2CC(CN3CCC(Nc4ncnc5ccc(N6CCNCC6)nc45)CC3)C2)cc1
IC50 [1]: 0.18 µM | IC50 (MV4-11 [2]): 2.2 µM | IC50 (HL-60): > 10 µM

CN(C)C1CCN(c2ccc3ncnc(NC4CCN(CC5CN(c6ccc(C#N)cc6)C5)CC4)c3n2)CC1
IC50 [1]: 0.13 µM | IC50 (MV4-11 [2]): 9.8 µM | IC50 (HL-60): 10.2 µM

CCNCCNc1ccc2ncnc(NC3CCN(CC4CN(c5ccc(C#N)cc5)C4)CC3)c2n1
IC50 [1]: > 10 µM | IC50 (MV4-11 [2]): > 10 µM | IC50 (HL-60): > 10 µM

O=S(=O)(c1ccncc1)c1ccc(N2CC(CN3CCC(Nc4ncnc5ccc(Cl)nc45)CC3)C2)cc1
IC50 [1]: 0.03 µM | IC50 (MV4-11 [2]): 2 µM | IC50 (HL-60): 8.8 µM | solubility [3]: 10 µg/mL (≈ 18.2 µM)

O=S(=O)(c1ccc(N2CC(CN3CCC(Nc4ncnc5ccc(Cl)nc45)CC3)C2)cc1)C1CC1
IC50 [1]: 0.09 µM | IC50 (MV4-11 [2]): 6.6 µM | IC50 (HL-60): > 10 µM | solubility [3]: 15.9 µg/mL (≈ 31 µM)

CN1CCN(c2ccc3ncnc(NC4CCN(CC5CN(c6ccc(C#N)cc6)C5)CC4)c3n2)CC1
IC50 [1]: 0.07 µM | IC50 (MV4-11 [2]): 5.6 µM | IC50 (HL-60): 10 µM

N#Cc1ccc(N2CC(CN3CCC(Nc4ncnc5ccc(NCCN)nc45)CC3)C2)cc1
IC50 [1]: 0.68 µM | IC50 (MV4-11 [2]): 9.8 µM | IC50 (HL-60): > 10 µM

CCCc1cc2c(N3CCN(C4=NCC(C)(C)S4)CC3)ncnc2s1
IC50 (MV4-11 [2]): 9.2 µM | Activity (MV4-11 [4]): Active | IC50 (MV4-11 [5]): 8.52 µM | IC50 (MV4-11 [6]): 7.62 µM | Activity (MV4-11 [7]): Dde | IC50 (HL-60): > 10 µM | Activity (MV4-11 [8]): Active

CC(C)(C)OC(=O)N1CC(S(=O)(=O)c2ccc(N3CC(CN4CCC(Nc5ncnc6ccc(Cl)nc56)CC4)C3)cc2)C1
IC50 [1]: 0.12 µM | IC50 (MV4-11 [2]): 2.3 µM | IC50 (HL-60): > 10 µM | solubility [3]: < 0.6 µg/mL

N#Cc1ccc(N2CC(CN3CCC(Nc4ncnc5cnc(N6CCCCC6)cc45)CC3)C2)cc1
IC50 [1]: 0.59 µM | IC50 (MV4-11 [2]): > 10 µM | IC50 (HL-60): > 10 µM

N#Cc1ccc(N2CC(CN3CCC(Nc4ncnc5cnc(N6CCCC6)cc45)CC3)C2)cc1
IC50 [1]: > 10 µM | IC50 (MV4-11 [2]): 6.5 µM | IC50 (HL-60): > 10 µM

N#Cc1ccc(N2CC(CN3CCC(Nc4ncnc5cnc(NC6CCCC6)cc45)CC3)C2)cc1
IC50 [1]: 0.06 µM | IC50 (MV4-11 [2]): > 10 µM | IC50 (HL-60): > 10 µM

CN(C)CCOc1ccc2ncnc(NC3CCN(CC4CN(c5ccc(C#N)cc5)C4)CC3)c2n1
IC50 [1]: 0.06 µM | IC50 (MV4-11 [2]): 1.5 µM | IC50 (HL-60): > 10 µM | solubility [3]: 314 µg/mL (≈ 645 µM)

CN(C)CCNc1ccc2ncnc(NC3CCN(CC4CN(c5ccc(C#N)cc5)C4)CC3)c2n1
IC50 [1]: 0.97 µM | IC50 (MV4-11 [2]): 4.4 µM | IC50 (HL-60): > 10 µM

N#Cc1ccc(N2CC(CN3CCC(Nc4ncnc5cnc(NC6CC6)cc45)CC3)C2)cc1
IC50 [1]: > 10 µM | IC50 (MV4-11 [2]): > 10 µM | IC50 (HL-60): > 10 µM

— ChEMBL document CHEMBL5104196, “Discovery of Novel, Potent, and Selective Small-Molecule Menin-Mixed Lineage Leukemia Interaction Inhibitors through Attempting Introduction of Hydrophilic Groups” (J Med Chem, 2022)
